Results reported in patent publication US20230023559A1, “ARYLMETHYLENE HETEROCYCLIC COMPOUNDS AS KV1.3 POTASSIUM SHAKER CHANNEL BLOCKERS” (D. E. Shaw Research, LLC, priority 2019, published 2023).

Assays:
Kv1.3 potassium channel = target: T1, Kv1.3 potassium channel (Homo sapiens, UniProt P22001); assay: Kv1.3 potassium channel blocker activity, automated whole-cell patch clamp (Patchliner); assay type: cell-based; conditions: CHO-K1 cells stably expressing Kv1.3; whole cell current inhibition; read-out: Kv1.3_IC50
T1 construct: expressed in transfected cells
T1 sequence (P22001 whole entry): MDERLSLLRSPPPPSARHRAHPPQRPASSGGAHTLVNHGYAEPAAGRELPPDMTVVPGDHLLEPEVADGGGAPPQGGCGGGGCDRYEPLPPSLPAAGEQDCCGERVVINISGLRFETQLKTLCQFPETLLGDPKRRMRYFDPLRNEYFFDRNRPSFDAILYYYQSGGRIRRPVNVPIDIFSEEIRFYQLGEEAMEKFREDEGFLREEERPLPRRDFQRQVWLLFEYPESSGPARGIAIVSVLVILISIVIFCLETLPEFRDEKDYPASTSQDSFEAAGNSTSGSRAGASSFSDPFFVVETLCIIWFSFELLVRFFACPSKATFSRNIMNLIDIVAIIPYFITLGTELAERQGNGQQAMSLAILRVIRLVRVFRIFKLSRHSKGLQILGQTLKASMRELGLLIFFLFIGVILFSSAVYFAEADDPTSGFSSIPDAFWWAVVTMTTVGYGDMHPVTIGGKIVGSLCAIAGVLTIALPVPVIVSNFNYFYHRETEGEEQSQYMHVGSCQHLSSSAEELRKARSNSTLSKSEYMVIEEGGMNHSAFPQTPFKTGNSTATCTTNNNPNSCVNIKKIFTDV
Method in brief: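 CHO-K1 cells stably expressing Kv1.3, automated whole-cell patch clamp. Currents evoked by 100 ms steps from −90 mV holding to +40 mV at 0.1 Hz, sampled at 10 kHz unfiltered, P/4 leak subtraction; peak current inhibition measured, compound incubation ≤10 s between pulse trains.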

hERG channel = hERG channel (Homo sapiens, UniProt Q12809); assay: hERG electrophysiology, automated whole-cell patch clamp (Patchliner)
hERG channel, sequence (Q12809 whole entry): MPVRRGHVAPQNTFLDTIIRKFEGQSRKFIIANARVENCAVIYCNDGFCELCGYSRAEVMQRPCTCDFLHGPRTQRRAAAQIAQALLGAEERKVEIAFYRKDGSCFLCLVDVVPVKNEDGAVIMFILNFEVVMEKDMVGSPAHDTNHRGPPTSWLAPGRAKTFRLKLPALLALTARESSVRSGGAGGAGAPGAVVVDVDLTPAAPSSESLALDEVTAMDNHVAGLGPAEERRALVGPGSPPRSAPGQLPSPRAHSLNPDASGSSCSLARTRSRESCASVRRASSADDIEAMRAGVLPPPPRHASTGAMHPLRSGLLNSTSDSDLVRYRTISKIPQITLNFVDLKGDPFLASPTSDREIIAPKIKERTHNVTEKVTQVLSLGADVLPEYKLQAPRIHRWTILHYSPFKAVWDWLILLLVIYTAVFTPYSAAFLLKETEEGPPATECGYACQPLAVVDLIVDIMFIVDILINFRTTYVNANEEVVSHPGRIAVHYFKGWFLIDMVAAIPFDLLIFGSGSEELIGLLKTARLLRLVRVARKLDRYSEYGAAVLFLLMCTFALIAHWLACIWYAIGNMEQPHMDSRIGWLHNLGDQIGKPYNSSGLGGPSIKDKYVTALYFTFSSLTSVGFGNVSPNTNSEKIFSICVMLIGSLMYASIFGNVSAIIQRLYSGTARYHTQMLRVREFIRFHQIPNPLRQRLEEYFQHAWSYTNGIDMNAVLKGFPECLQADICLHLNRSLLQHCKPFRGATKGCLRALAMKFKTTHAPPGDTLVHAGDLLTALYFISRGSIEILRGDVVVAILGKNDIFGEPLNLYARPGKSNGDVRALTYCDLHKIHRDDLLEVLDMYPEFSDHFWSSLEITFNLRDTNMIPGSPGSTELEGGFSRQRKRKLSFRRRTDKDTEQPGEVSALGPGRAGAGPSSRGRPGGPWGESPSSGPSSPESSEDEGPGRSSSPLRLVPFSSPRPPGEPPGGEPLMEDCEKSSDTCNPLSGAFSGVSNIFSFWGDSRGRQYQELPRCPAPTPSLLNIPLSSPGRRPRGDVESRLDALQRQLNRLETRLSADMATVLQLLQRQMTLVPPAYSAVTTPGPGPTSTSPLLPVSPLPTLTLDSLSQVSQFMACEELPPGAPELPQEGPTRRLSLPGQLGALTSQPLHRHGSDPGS

**Q.** With `N[C@@H](c1cc(Cl)c(Cl)cc1O)C1CCN(C(=O)[C@@H]2CCC(=O)NC2)CC1` (single isomer, unassigned; isomer 2) [Compound 222] as the molecule, how does the IC50 (Kv1.3 potassium channel) read?
**A.** The IC50 was < 0.5 µM.

**Q.** What about the IC50 (hERG channel) of the same molecule?
**A.** The IC50 was > 30 µM.

**Q.** Which results are given for `Cc1cc(O)c([C@H](N)C2CCN(C(=O)c3c[nH]c(=O)c(Cl)c3)CC2)c(F)c1Cl` [Compound 264, 5-[4-[(R)-amino(3-chloro-2-fluoro-6-hydroxy-4-methylphenyl)methyl]piperidine-1-carbonyl]-3-chloro-1H-pyridin-2-one Trifluoroacetic Acid]?
**A.** IC50 (Kv1.3 potassium channel): < 10 µM; IC50 (hERG channel): > 30 µM

**Q.** Which results are given for `Cc1cc(O)c([C@H](N)C2CCN(C(=O)[C@H](O)CO)CC2)cc1Cl` [Compound 190, (2R)-1-[4-[(R)-amino(5-chloro-2-hydroxy-4-methylphenyl)methyl]piperidin-1-yl]-2,3-dihydroxypropan-1-one Trifluoroacetic Acid]?
**A.** IC50 (Kv1.3 potassium channel): < 0.5 µM; IC50 (hERG channel): > 30 µM

**Q.** `N[C@@H](c1cc(Cl)c(Cl)cc1O)C1CCN(C(=O)c2ccc(=O)[nH]c2)CC1` [Compound 305, 5-[4-[(R)-amino(4,5-dichloro-2-hydroxyphenyl)methyl]piperidine-1-carbonyl]-1,2-dihydropyridin-2-one trifluoroacetic acid] was tested. Which IC50 (Kv1.3 potassium channel) did it give?
**A.** The IC50 was < 0.5 µM.

**Q.** What about the IC50 (hERG channel) of the same molecule?
**A.** The IC50 was > 30 µM.

**Q.** What does the source list for `NC(c1cc(Cl)c(Cl)cc1O)C1CCN(C(=O)C2COC2)CC1` (centres unmarked) [Compound 67, 2-[amino[1-(oxetane-3-carbonyl)piperidin-4-yl]methyl]-4,5-dichlorophenol]?
**A.** IC50 (Kv1.3 potassium channel): < 0.5 µM; IC50 (hERG channel): < 30 µM

**Q.** How did the IC50 (Kv1.3 potassium channel) turn out when `N[C@@H](c1cc(Cl)c(Cl)cc1O)C1CCN(C(=O)N2CC(O)C2)CC1` [Compound 148, 1-[4-[(R)-amino(4,5-dichloro-2-hydroxyphenyl)methyl]piperidine-1-carbonyl]azetidin-3-ol Trifluoroacetic Acid] was run?
**A.** Its IC50 is < 0.5 µM.

**Q.** What about the IC50 (hERG channel) of the same molecule?
**A.** The IC50 was > 30 µM.

**Q.** How did the IC50 (Kv1.3 potassium channel) turn out when `CN1C(=O)CC[C@@H]1C(=O)N1CCC([C@@H](N)c2cc(Cl)c(Cl)cc2O)CC1` [Compound 216, (5R)-5-[4-[(R)-amino(4,5-dichloro-2-hydroxyphenyl)methyl]piperidine-1-carbonyl]-1-methylpyrrolidin-2-one] was run?
**A.** The IC50 was < 10 µM.

**Q.** And the IC50 (hERG channel)?
**A.** The IC50 was > 30 µM.

**Q.** With `C[C@H]1C[C@H]([C@@H](N)c2cc(Cl)c(Cl)cc2O)CCN1C(=O)[C@H](O)CO` [Compound 326, (2R)-1-[(2S,4R)-4-[(R)-amino(4,5-dichloro-2-hydroxyphenyl)methyl]-2-methylpiperidin-1-yl]-2,3-dihydroxypropan-1-one Trifluoroacetic Acid] as the molecule, how does the IC50 (Kv1.3 potassium channel) read?
**A.** Its IC50 is < 0.5 µM.

**Q.** And the IC50 (hERG channel)?
**A.** The IC50 was > 30 µM.

**Q.** `NC(c1cc(Cl)c(Cl)cc1O)C1CCN(C(=O)[C@H]2CCNC2)CC1` (stereo partly drawn) [Compound 63, (4-(amino(4,5-dichloro-2-hydroxyphenyl)methyl)piperidin-1-yl)((S)-pyrrolidin-3-yl)methanone Trifluoroacetic Acid] was tested. Which IC50 (Kv1.3 potassium channel) did it give?
**A.** Its IC50 is < 0.5 µM.

**Q.** And the IC50 (hERG channel)?
**A.** The IC50 was > 30 µM.

**Q.** Which results are given for `N[C@@H](c1cc(Cl)c(Cl)cc1O)C1CCN(C(=O)c2cn[nH]c2)CC1` [Compound 131, 2-[(R)-amino[1-(1H-pyrazole-4-carbonyl)piperidin-4-yl]methyl]-4,5-dichlorophenol trifluoroacetic acid]?
**A.** IC50 (Kv1.3 potassium channel): < 0.5 µM; IC50 (hERG channel): > 30 µM

**Q.** What does the source list for `Oc1ccc2ccccc2c1C(O)C1CCNCC1` (centres unmarked) [Compound 30, 1-(hydroxy(piperidin-4-yl)methyl)naphthalen-2-ol]?
**A.** IC50 (Kv1.3 potassium channel): < 10 µM; IC50 (hERG channel): > 30 µM

**Q.** For `N[C@@H](c1cc(Cl)c(Cl)cc1O)C1CCN(C(=O)[C@@H]2CCC(=O)N2)CC1` [Compound 166, (5S)-5-[4-[(R)-amino(4,5-dichloro-2-hydroxyphenyl)methyl]piperidine-1-carbonyl] pyrrolidin-2-one trifluoroacetic acid], which IC50 (Kv1.3 potassium channel) is on record?
**A.** Its IC50 is < 10 µM.

**Q.** And the IC50 (hERG channel)?
**A.** Its IC50 is > 30 µM.

**Q.** `N[C@@H](c1cc(Cl)c(Cl)cc1O)C1CCN(C(=O)[C@H]2CNC(=O)CO2)CC1` (single isomer, unassigned; isomer 2) [Compound 276] was tested. Which IC50 (Kv1.3 potassium channel) did it give?
**A.** The IC50 was < 0.5 µM.

**Q.** What about the IC50 (hERG channel) of the same molecule?
**A.** The IC50 was > 30 µM.

**Q.** With `N[C@@H](c1cc(Cl)c(Cl)cc1O)C1CCN(S(=O)(=O)[C@H]2CCNC2)CC1` (single isomer, unassigned; isomer 2) [Compound 118] as the molecule, how does the IC50 (Kv1.3 potassium channel) read?
**A.** Its IC50 is < 0.5 µM.

**Q.** What about the IC50 (hERG channel) of the same molecule?
**A.** The IC50 was > 30 µM.

**Q.** How did the IC50 (Kv1.3 potassium channel) turn out when `N[C@@H](c1cc(Cl)c(Cl)cc1O)C1CCN(C(=O)NCCO)CC1` [Compound 209, 4-[(R)-amino(4,5-dichloro-2-hydroxyphenyl)methyl]-N-(2-hydroxyethyl)piperidine-1-carboxamide Trifluoroacetic Acid] was run?
**A.** The IC50 was < 0.5 µM.

**Q.** What about the IC50 (hERG channel) of the same molecule?
**A.** The IC50 was > 30 µM.

**Q.** What does the source list for `N[C@@H](c1cc(Cl)c(Cl)cc1O)C1CCN(C(=O)c2cccc(=O)[nH]2)CC1` [Compound 178, (R)-6-(4-(amino(4,5-dichloro-2-hydroxyphenyl)methyl)piperidine-1-carbonyl) pyridin-2(1H)-one formic acid]?
**A.** IC50 (Kv1.3 potassium channel): < 0.5 µM; IC50 (hERG channel): > 30 µM

**Q.** Which results are given for `NC(c1c(O)cc(Cl)c(Cl)c1Cl)C1CCNCC1` (centres unmarked) [Compound 37, 2-[amino(piperidin-4-yl)methyl]-3,4,5-trichlorophenol Trifluoroacetic Acid]?
**A.** IC50 (Kv1.3 potassium channel): < 10 µM; IC50 (hERG channel): > 30 µM

**Q.** With `N[C@@H](c1cc(Cl)c(C2CC2)cc1O)C1CCN(C(=O)[C@H](O)CO)CC1` [Compound 289, (2R)-1-[4-[(R)-amino(5-chloro-4-cyclopropyl-2-hydroxyphenyl)methyl]piperidin-1-yl]-2,3-dihydroxypropan-1-one] as the molecule, how does the IC50 (Kv1.3 potassium channel) read?
**A.** The IC50 was < 0.5 µM.

**Q.** And the IC50 (hERG channel)?
**A.** The IC50 was > 30 µM.

**Q.** Which IC50 (Kv1.3 potassium channel) does the source give for `N[C@@H](c1cc(Cl)c(Cl)cc1O)C1CCN(C(=O)c2cnoc2)CC1` [Compound 205, 2-[(R)-amino[1-(1,2-oxazole-4-carbonyl)piperidin-4-yl]methyl]-4,5-dichlorophenol] here?
**A.** The IC50 was < 0.5 µM.

**Q.** What about the IC50 (hERG channel) of the same molecule?
**A.** Its IC50 is > 30 µM.

**Q.** `N[C@@H](c1cc(Cl)c(Cl)cc1O)C1CCN(C(=O)CCO)CC1` [Compound 133, 1-[4-[(R)-amino(4,5-dichloro-2-hydroxyphenyl)methyl]piperidin-1-yl]-3-hydroxypropan-1-one trifluoroacetic acid] was tested. Which IC50 (Kv1.3 potassium channel) did it give?
**A.** The IC50 was < 0.5 µM.

**Q.** What about the IC50 (hERG channel) of the same molecule?
**A.** Its IC50 is > 30 µM.

**Q.** `C[C@H](O)[C@H](N)C(=O)N1CCC([C@@H](N)c2cc(Cl)c(Cl)cc2O)CC1` [Compound 175, (2S,3S)-2-amino-1-[4-[(R)-amino(4,5-dichloro-2-hydroxyphenyl)methyl]piperidin-1-yl]-3-hydroxybutan-1-one bis trifluoroacetic acid] was tested. Which IC50 (Kv1.3 potassium channel) did it give?
**A.** Its IC50 is < 0.5 µM.

**Q.** What about the IC50 (hERG channel) of the same molecule?
**A.** The IC50 was > 30 µM.

**Q.** How did the IC50 (Kv1.3 potassium channel) turn out when `CC(=O)NC(c1c(O)ccc2ccccc12)C1CCNCC1` (centres unmarked) [Compound 36, N-[(2-hydroxynaphthalen-1-yl)(piperidin-4-yl)methyl]acetamide Trifluoroacetic Acid] was run?
**A.** Its IC50 is < 10 µM.

**Q.** What about the IC50 (hERG channel) of the same molecule?
**A.** The IC50 was > 30 µM.

**Q.** Which results are given for `N[C@@H](c1cc(Cl)c(Cl)cc1O)C1CCN(C(=O)[C@H]2COCCN2)CC1` [Compound 194, (4-((R)-amino(4,5-dichloro-2-hydroxyphenyl)methyl)piperidin-1-yl)((R)-morpholin-3-yl)methanone]?
**A.** IC50 (Kv1.3 potassium channel): < 0.5 µM; IC50 (hERG channel): > 30 µM

**Q.** For `C[C@@](O)(CO)C(=O)N1CCC([C@@H](N)c2cc(Cl)c(Cl)cc2O)CC1` (single isomer, unassigned; isomer 1) [Compound 217], which IC50 (Kv1.3 potassium channel) is on record?
**A.** The IC50 was < 10 µM.

**Q.** And the IC50 (hERG channel)?
**A.** The IC50 was > 30 µM.

**Q.** Which IC50 (Kv1.3 potassium channel) does the source give for `Cc1cc(O)c([C@H](N)C2CCN(C(=O)C3CNC3)CC2)cc1Cl` [Compound 235, 2-[(R)-amino[1-(azetidine-3-carbonyl)piperidin-4-yl]methyl]-4-chloro-5-methylphenol trifluoroacetic acid] here?
**A.** Its IC50 is < 0.5 µM.

**Q.** What about the IC50 (hERG channel) of the same molecule?
**A.** Its IC50 is > 30 µM.
